pEC50: −log10 of the molar value.
Assays:
[1] = tested on: HT-1080 cells; test: LOC library screening and confirmation: suppression of erastin-induced death; type: cell-based; settings: Homo sapiens, LOC library screening and confirmation studies, read-out: EC50, inhibition of erastin-induced ferroptosis
Procedure: The LOC library was screened over the course of several days. 384-well glass bottom assay plates (Corning) were seeded with 1,000 HT-1080 cells/well the day before the experiment. The day of the experiment, LOC mother plates were thawed at room temperature for 1 hour and spun at 1000 rpm for 1 minute prior to use. Using a BioMek liquid handing robot, 2 μL of compound solution from each LOC library mother plate was transferred to a 384 deep well “daughter” plate (Grenier) containing 148 μL of cell culture media. The cell culture media in each assay plate was then removed by flicking and, using a BioMek FX, replaced with 36 μL of growth media containing erastin (5 μM final). To this was added 4 μL of the drug solution from the daughter plate, for a final screening concentration of 5.3 μg/mL for each LOC library compound. 4 wells containing DMSO alone (no erastin), 4 wells containing 100 μM DFO alone (no erastin), 4 wells containing erastin plus DMSO, and 4 wells containing erastin plus 100 μM DFO (positive control) were included as controls on each plate. Each drug daughter plate was aliquoted separately to duplicate assay plates. Plates were then spun briefly (1000 rpm, 5 seconds) and returned to the 37° C. tissue culture incubator. 24 hours later, cell viability was assessed by Alamar Blue as described above.
Candidate hits from the LOC library screen were identified. […]

[2] = tested on: HT-1080 cells; test: Effect of Fer-1 on the lethality of various compounds in HT-1080 cells; type: cell-based, human; settings: resynthesized Fer-1 (0.5 μM)
Procedure: The comparative analysis of the lethal effects of various molecules was conducted as above for the inhibitors experiment with the following modifications. All lethal molecules were tested in a ten point, two-fold dilution series. Inhibitors were made in media at 1× final concentration. The growth media was removed from the plates, and 36 μL media+inhibitor (or DMSO) was added back to the plate+4 μL from the 10× lethal stock plate. Cell viability and modulatory effects (Me) were computed as above, to obtain the maximum deviation from BExp produced by each modulator across the different lethal small molecule concentrations.

[3] = tested on: HT-1080 cells; test: HT-1080 cell proliferation (Vi-Cell); type: cell-based, human; settings: over 48 hours
Procedure: Cell viability was typically assessed in 384-well format by Alamar Blue (Invitrogen) fluorescence (ex/em 530/590) measured on a Victor3 platereader (Perkin Elmer, Waltham, Mass.). In some experiments, Trypan Blue dye exclusion counting was performed using an automated cell counter (ViCell, Beckman-Coulter Inc., Brea, Calif.). Cell viability in test conditions is reported as a percentage relative to the negative control treatment.

[4] = tested on: HT-1080 cells; test: Mitochondrial cardiolipin peroxidation (10-N-nonylacridine orange) in HT-1080 cells; type: cell-based, human; settings: STS 100 nM, NAO probe
Procedure: 200,000 HT-1080 cells were seeded into 6-well dishes (Corning). […] For the analysis of mitochondrial ROS, cells were incubated with 5 μM MitoSOX (Molecular Probes/Invitrogen) in HBSS for 10 minutes in the dark at 37° C. For the analysis of mitochondrial cardiolipin peroxidation, cells were incubated with NAO dissolved to a final concentration of 25 ng/mL in HBSS for 10 minutes in the dark at 37° C. Cells were then washed once in HBSS and measurements were subsequently acquired using an flow cytometer (BD/Accuri C6) equipped with a 488 nm laser for excitation of fluorophores. MitoSOX data were collected in the FL2 channel and NAO data was collected in the FL1 channel. Data are from three independent biological replicates of each experiment. Data were analyzed by one-way ANOVA with Bonferroni's post-hoc test.

[5] = tested on: HT-1080 cells; test: Acridine orange relocalization (lysosomal membrane permeabilization) in HT-1080 cells; type: cell-based, human; settings: acridine orange re-localization
Procedure: 200,000 HT-1080 cells were seeded into 6-well dishes (Corning). The next day, cells were incubated with 25 ng/mL of AO for 15 minutes, then medium was removed and cells were incubated in growth medium for 15 minutes. […] Relocalization of AO from lysosomes (discrete red puncta) to the cytosol (diffuse green color) was determined using an EVOS fl digital inverted fluorescent microscope (Advanced Microscopy Group) equipped with GFP (ex/em 470/525) and RFP (ex/em 531/593) light cubes.

[6] = tested on: C57BL/6 mice, kidney ischemia-reperfusion injury; test: Kidney model of ischemia-reperfusion injury (IRI); type: in vivo
Procedure: As an initial in vivo study, the effects of Fer-1 and SRS16-86 on serum creatinine, a marker of kidney damage, were evaluated in an ischemia reperfusion injury (IRI) model of kidney failure (FIG. 21).
Organs were dissected as indicated in each experiment and infused with 4% (vol/vol) neutral-buffered formaldehyde, fixated for 48 h, dehydrated in a graded ethanol series and xylene, and finally embedded in paraffin. Stained sections were analyzed using an Axio Imager microscope (Zeiss). Kidney damage was quantified by two experienced pathologists in a double-blind manner on a scale ranging from 0 (unaffected tissue) to 10 (severe organ damage). The following parameters were chosen as indicative of morphological damage to the kidney after ischemia-reperfusion injury (IRI): brush border loss, red blood cell extravasation, tubule dilatation, tubule degeneration, tubule necrosis, and tubular cast formation. These parameters were evaluated on a scale of 0-10, which ranged from not present (0), mild (1-4), moderate (5 or 6), severe (7 or 8), to very severe (9 or 10). Each parameter was determined on at least four different animals.
Induction of kidney IRI was performed via a midline abdominal incision and a bilateral renal pedicle clamping for either 40 min (severe IRI, or “lethal-to-WT” IRI) or 50 min (ultra-severe IRI) using microaneurysm clamps (Aesculab). Throughout the surgical procedure, the body temperature was maintained between 36° C. and 37° C. by continuous monitoring using a temperature-controlled self-regulated heating system (Fine Science Tools). After removal of the clamps, reperfusion of the kidneys was confirmed visually. The abdomen was closed in two layers using standard 6-0 sutures. Sham-operated mice underwent the identical surgical procedures, except that microaneurysm clamps were not applied. To maintain fluid balance, all of the mice were supplemented with 1 mL of prewarmed PBS administered intraperitoneally directly after surgery. All mice were killed 48 h after reperfusion for each experiment. […] All ischemia-reperfusion experiments were performed in a double-blinded manner.

SMILES: CCOC(=O)c1ccc(NC2CCCCC2)c(N)c1 [SRS8-28 (Fer-1), ethyl 3-amino-4-(cyclohexylamino)benzoate]
- pEC50 [1]: 7.22
- specificity of death inhibition among lethal compounds [2]: specifically inhibited RSL-induced death, but not cell death induced by other oxidative lethal compounds and apoptosis-inducing agents
- HT-1080 cell proliferation [3]: did not inhibit ERK phosphorylation or arrest the proliferation of HT-1080 cells
- mitochondrial cardiolipin oxidation in response to staurosporine [4]: did not prevent
- lysosomal membrane destruction in response to H2O2 [5]: did not prevent
- serum creatinine in IRI model of kidney failure ([6]; 2 mg/kg IP 30 minutes prior to induction of IRI): effective
- functional acute renal failure and structural organ damage after severe IRI ([6]; 40 min ischemia, 48 h after reperfusion, 2 mg/kg i.p.): protected from functional acute renal failure

Reference: patent publication US11192849B2, “Compounds, compositions, and methods for modulating ferroptosis and treating excitotoxic disorders” (THE TRUSTEES OF COLUMBIA UNIVERSITY IN THE CITY OF NEW YORK, priority 2013, dated 2021)
